Earlier results, collected in patent publication US11147946B2, “Venous access catheters and methods for portal venous system catheterization” (THE REGENTS OF THE UNIVERSITY OF COLORADO, A BODY CORPORATE, priority 2014, dated 2021).
Numbered stars: 1 amine (or outer) side, 2 acyl side, 3 side chain; on linkers, the order of the positions; unused ones are H or OH. Square brackets hold non-standard residues; d marks the D form. Side chains are listed from the residue outwards. Peptide text beside a SMILES is read from it. * marks the point of attachment. Ethylenediamine = C(CN[*:2])N[*:1]; Hyp = O=C(O)[C@@H]1C[C@@H](O)CN1; Phg = N[C@H](C(=O)O)c1ccccc1; CO = O=C([*:1])[*:2]; Bn = c1ccc(C*)cc1

Tests used:
portal hypertension = settings: compared with propranolol, cirrhosis
SSTR4 = SSTR4 (Homo sapiens, UniProt P31391)
SSTR1 = SSTR1 (Homo sapiens, UniProt P30872)
SSTR2 = SSTR2 (Homo sapiens, UniProt P30874)
SSTR3 = SSTR3 (Homo sapiens, UniProt P32745)
SSTR5 = SSTR5 (Homo sapiens, UniProt P35346)
human tumour = settings: in vivo xenograft and orthotopic models
[1] = system: human colon (Colo205) carcinoma cell line
[2] = target: (Homo sapiens, UniProt P08069)
[3] = system: human breast (MCF7) carcinoma cell line
[4] = system: human pancreas (BxPC-3) carcinoma cell line

Chain of SSTR3 (P32745 whole entry): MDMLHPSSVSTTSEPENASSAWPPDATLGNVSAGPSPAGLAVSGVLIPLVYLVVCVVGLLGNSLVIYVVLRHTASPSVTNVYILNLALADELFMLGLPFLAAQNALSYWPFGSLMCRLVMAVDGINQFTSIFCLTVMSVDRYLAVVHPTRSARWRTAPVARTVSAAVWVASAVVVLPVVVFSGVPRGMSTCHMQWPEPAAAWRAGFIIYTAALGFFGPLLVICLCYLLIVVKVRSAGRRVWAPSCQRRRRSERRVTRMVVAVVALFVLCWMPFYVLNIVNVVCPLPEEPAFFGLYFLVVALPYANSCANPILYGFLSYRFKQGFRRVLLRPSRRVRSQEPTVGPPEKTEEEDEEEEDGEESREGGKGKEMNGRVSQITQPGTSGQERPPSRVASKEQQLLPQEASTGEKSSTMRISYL
Chain of SSTR2 (P30874 whole entry): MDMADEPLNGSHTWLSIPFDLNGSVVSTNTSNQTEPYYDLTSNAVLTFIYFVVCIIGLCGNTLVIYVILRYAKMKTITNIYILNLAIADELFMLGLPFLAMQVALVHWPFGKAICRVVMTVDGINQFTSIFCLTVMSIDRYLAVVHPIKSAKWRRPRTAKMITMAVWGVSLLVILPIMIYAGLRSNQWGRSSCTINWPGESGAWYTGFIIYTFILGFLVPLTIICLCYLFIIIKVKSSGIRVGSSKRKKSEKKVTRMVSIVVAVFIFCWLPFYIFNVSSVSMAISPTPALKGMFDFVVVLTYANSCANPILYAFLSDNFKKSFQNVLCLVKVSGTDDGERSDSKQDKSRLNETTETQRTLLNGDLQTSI
Chain of SSTR1 (P30872 whole entry): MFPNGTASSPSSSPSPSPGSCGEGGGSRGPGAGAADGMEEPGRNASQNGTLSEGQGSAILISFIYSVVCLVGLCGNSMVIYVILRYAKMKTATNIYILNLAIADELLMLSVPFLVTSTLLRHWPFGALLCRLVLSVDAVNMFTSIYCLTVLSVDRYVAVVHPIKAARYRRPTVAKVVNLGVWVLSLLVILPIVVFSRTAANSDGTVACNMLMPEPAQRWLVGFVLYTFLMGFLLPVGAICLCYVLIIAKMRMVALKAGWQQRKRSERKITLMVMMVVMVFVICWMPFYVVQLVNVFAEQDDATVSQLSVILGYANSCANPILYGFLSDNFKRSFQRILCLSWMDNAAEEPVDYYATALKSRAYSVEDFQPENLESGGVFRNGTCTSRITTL
Chain of SSTR5 (P35346 whole entry): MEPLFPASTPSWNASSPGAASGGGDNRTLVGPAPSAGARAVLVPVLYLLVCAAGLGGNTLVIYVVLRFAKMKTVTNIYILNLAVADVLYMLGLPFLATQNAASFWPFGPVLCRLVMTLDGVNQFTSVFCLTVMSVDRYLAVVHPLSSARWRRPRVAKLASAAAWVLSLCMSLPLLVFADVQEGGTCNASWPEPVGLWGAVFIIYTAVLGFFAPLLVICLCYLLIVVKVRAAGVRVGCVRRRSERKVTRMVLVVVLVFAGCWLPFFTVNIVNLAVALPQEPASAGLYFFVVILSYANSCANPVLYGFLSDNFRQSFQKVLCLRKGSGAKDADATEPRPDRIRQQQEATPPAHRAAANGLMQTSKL
Chain of SSTR4 (P31391 whole entry): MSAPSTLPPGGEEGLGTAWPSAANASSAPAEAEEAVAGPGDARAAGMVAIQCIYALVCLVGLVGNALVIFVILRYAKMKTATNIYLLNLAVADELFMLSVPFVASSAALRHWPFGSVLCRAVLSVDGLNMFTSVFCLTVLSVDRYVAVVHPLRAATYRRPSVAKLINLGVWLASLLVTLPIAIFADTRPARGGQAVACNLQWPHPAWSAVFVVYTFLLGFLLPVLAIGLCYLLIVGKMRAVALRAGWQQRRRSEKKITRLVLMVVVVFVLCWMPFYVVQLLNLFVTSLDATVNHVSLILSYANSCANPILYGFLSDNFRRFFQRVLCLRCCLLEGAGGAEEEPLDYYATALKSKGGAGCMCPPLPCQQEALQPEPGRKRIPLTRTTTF
Chain of (Homo sapiens, UniProt P08069) (P08069 31-736 limits assumed): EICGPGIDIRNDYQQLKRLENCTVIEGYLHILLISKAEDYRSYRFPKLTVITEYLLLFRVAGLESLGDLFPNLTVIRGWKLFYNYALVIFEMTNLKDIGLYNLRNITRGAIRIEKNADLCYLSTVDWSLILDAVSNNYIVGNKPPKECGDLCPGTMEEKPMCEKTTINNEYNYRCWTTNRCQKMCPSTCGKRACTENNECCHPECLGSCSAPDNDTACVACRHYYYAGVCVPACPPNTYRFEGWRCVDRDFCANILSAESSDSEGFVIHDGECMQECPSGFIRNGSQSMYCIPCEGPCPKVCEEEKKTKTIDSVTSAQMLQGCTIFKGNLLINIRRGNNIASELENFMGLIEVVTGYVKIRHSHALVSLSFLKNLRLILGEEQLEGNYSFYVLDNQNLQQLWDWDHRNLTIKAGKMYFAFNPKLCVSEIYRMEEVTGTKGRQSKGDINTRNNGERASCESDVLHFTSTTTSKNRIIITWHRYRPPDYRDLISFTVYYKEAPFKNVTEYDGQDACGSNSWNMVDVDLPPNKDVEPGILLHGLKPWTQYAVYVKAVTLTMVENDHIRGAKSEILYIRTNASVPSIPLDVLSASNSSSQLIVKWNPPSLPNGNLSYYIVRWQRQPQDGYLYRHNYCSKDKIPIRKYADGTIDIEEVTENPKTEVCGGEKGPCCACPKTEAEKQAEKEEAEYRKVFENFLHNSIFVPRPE
Chain of (Homo sapiens, UniProt P08069) (P08069 741-1367 limits assumed): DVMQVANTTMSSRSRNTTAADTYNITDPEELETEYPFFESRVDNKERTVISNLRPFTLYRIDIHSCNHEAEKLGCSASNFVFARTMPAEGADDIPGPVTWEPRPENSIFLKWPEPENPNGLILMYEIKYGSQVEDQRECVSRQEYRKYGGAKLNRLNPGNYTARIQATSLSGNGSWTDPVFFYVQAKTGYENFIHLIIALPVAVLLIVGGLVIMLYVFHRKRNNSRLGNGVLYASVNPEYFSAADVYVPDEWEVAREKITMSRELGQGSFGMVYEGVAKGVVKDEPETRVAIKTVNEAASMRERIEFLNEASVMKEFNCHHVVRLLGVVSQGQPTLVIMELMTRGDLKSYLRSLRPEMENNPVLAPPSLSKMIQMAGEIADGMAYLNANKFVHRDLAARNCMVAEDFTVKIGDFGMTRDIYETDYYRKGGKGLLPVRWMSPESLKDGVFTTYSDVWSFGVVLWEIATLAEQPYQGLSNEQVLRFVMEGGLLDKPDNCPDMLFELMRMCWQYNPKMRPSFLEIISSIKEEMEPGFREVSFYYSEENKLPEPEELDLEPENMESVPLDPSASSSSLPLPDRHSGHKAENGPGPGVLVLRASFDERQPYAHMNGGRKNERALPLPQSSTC

COc1ccccc1OCCNCC(O)COc1cccc2[nH]c3ccccc3c12 (stereo not shown) [carvedilol]
reduction of portal hypertension (PH) (portal hypertension): more effective than propranolol

CC(C)[C@@H]1NC(=O)[C@H](CCCCN)NC(=O)[C@@H](Cc2c[nH]c3ccccc23)NC(=O)[C@H](Cc2ccc(O)cc2)NC(=O)[C@@H](NC(=O)[C@H](N)Cc2ccc3ccccc3c2)CSSC[C@@H](C(=O)N[C@H](C(N)=O)[C@@H](C)O)NC1=O [lanreotide]
binding affinity to SSTR4 (SSTR4): reduced or no binding
binding affinity to SSTR1 (SSTR1): reduced or no binding
binding affinity to SSTR2 (SSTR2): high affinity
binding affinity to SSTR3 (SSTR3): reduced or no binding

C[C@@H](O)[C@@H]1NC(=O)[C@H](CCCCN)NC(=O)[C@@H](Cc2c[nH]c3ccccc23)NC(=O)[C@H](Cc2ccccc2)NC(=O)[C@@H](NC(=O)[C@H](N)Cc2ccccc2)CSSC[C@@H](C(=O)N[C@H](CO)[C@@H](C)O)NC1=O [octreotide]
binding affinity to SSTR2 (SSTR2): high affinity
binding affinity to SSTR3 (SSTR3): reduced affinity

NCCCC[C@@H]1NC(=O)[C@@H](Cc2c[nH]c3ccccc23)NC(=O)[C@H](c2ccccc2)NC(=O)[C@@H]2C[C@@H](OC(=O)NCCN)CN2C(=O)[C@H](Cc2ccccc2)NC(=O)[C@H](Cc2ccc(OCc3ccccc3)cc2)NC1=O [pasireotide] (cyclo([Hyp]([CO-Ethylenediamine])[Phg][dW]KY(Bn)F))
binding affinity to SSTR5 (SSTR5): high affinity
binding affinity to SSTR1 (SSTR1): decreased affinity
binding affinity to SSTR2 (SSTR2): decreased affinity
binding affinity to SSTR3 (SSTR3): decreased affinity

IMC-A12: fully human monoclonal IgG1 antibody, anti-IGF1R
antitumour activity (human tumour): shown activity against a human tumour
cell apoptosis [1]: induces cell apoptosis
cell proliferation [1]: inhibits cell proliferation
binding affinity [2]: high affinity
cell apoptosis [3]: induces cell apoptosis
cell proliferation [3]: inhibits cell proliferation
cell apoptosis [4]: induces cell apoptosis
cell proliferation [4]: inhibits cell proliferation
